This passage reports IC50 and AC50 results from patent US20240366612A1, “COMPOUNDS AND METHODS FOR MODULATING NUCLEIC ACID SPLICING” (REMIX THERAPEUTICS INC., priority 2021, published 2024).

pIC50: −log10 of the molar value. Where a name gives a salt, the structure may show the parent alone.

In one assay the test system is HTT mRNA. Kind of assay: Splicing RT-qPCR assay, HTT canonical (CJ) and alternative (AJ) junction mRNA. The settings on record: Homo sapiens, A673 or K562 cells, 24 hours treatment; for pIC50: decrease in CJ mRNA; for AC50: increase in AJ mRNA. In kind it is cell-based. In short, it runs like this: (§1)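 Compound-treated A673 or K562 cells (11-point 3-fold dilution, top dose 10 uM final, DMSO ≤0.25%) were incubated for 24 h at 37° C. Lysates underwent one-step RT-qPCR for canonical and alternative-exon junction isoforms. Normalization used PPIA for A673 and GAPDH or GUSB for K562.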

The next assay relates to MYB mRNA. Kind of assay: Splicing RT-qPCR assay, MYB canonical (CJ) and alternative (AJ) junction mRNA. In kind it is cell-based. The note with it: Homo sapiens, A673 or K562 cells, 24 hours treatment; for pIC50: decrease in CJ mRNA; for AC50: increase in AJ mRNA. In short, it runs like this:
as §1

Assay [1] has as its system HiBiT-tagged MYB protein in K562 cells. Kind of assay: HiBiT protein abundance assay, MYB. The settings on record: HiBiT-modified K562 cells, 24 hours, luminescence. Format: cell-based, human. The essentials: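 K562 lines with the endogenous target HiBiT-tagged, seeded in IMDM+1% FBS, got a 10-point 3-fold dilution series (top final 10 μM, DMSO ≤0.25%) for 24 hours at 37° C. Lytic LgBiT luminescence was normalized against unmodified-K562 and DMSO-only controls, and IC50 was interpolated at 50% from a four-parameter logistic fit.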
In general terms: HiBiT is a short tag that completes a luciferase, so light tracks the accessible tagged protein.

Broadly, the pIC50 is −log10 of the IC50, conventionally taken in molar units. Low values mean a high IC50, high ones a low IC50. Usually AC50 stands for the concentration at which the activity in the assay is half-maximal. Take `Cc1cn2cc(-n3cnc4nc(N5CCNCC5)sc4c3=O)cc(C(F)(F)F)c2n1` [Compound 229, 6-(2-methyl-8-(trifluoromethyl)imidazo[1,2-a]pyridin-6-yl)-2-(piperazin-1-yl)thiazolo[4,5-d]pyrimidin-7(6H)-one]: the negative-log IC50 (pIC50) (in the assay with HTT mRNA; in the assay with MYB mRNA; in assay [1]) was below 5.00 each time. Further, the AC50 with HTT mRNA and in the assay on MYB mRNA was above 10 µM each time.

As to `Cc1cn2cc(-n3cnc4nc(N5CCN(C)CC5)sc4c3=O)cc(C(F)(F)F)c2n1` [Compound 230, 6-(2-methyl-8-(trifluoromethyl)imidazo[1,2-a]pyridin-6-yl)-2-(4-methylpiperazin-1-yl)thiazolo[4,5-d]pyrimidin-7(6H)-one], the pIC50 in the assay with HTT mRNA is below 5.00; with MYB mRNA it was 6.00 to 7.00; in assay [1], below 5.00. The AC50 was above 10 µM in the assay with HTT mRNA and 0.1 to 1 µM in the assay on MYB mRNA.

Turning to `Cc1cn2nc(-c3nc4ncn(C5CCNCC5)c(=O)c4s3)cc(C)c2n1` [Compound 231, 2-(2,8-dimethylimidazo[1,2-b]pyridazin-6-yl)-6-(piperidin-4-yl)thiazolo[4,5-d]pyrimidin-7(6H)-one], the pIC50 (with HTT mRNA; in the assay on MYB mRNA; in assay [1]) was 6.00 to 7.00 each time. Further, the AC50 with HTT mRNA and with MYB mRNA was 0.1 to 1 µM throughout.

For the molecule `Cc1cn2cc(-c3nc4ncn(C5CCNCC5)c(=O)c4s3)cc(F)c2n1` [Compound 232, 2-(8-fluoro-2-methylimidazo[1,2-a]pyridin-6-yl)-6-(piperidin-4-yl)thiazolo[4,5-d]pyrimidin-7(6H)-one], the pIC50 in the assay on HTT mRNA is above 7.00; in the assay with MYB mRNA, 6.00 to 7.00; in assay [1], 6.00 to 7.00. In addition, the AC50 is below 0.1 µM in the assay with HTT mRNA and 0.1 to 1 µM in the assay with MYB mRNA.

As to `Cc1cc(-c2nc3ncn(C4CCNCC4)c(=O)c3s2)cc2cn(C)nc12` [Compound 233, 2-(2,7-dimethyl-2H-indazol-5-yl)-6-(piperidin-4-yl)thiazolo[4,5-d]pyrimidin-7(6H)-one], the pIC50 with HTT mRNA is above 7.00; in the assay with MYB mRNA, 6.00 to 7.00; in assay [1], above 7.00. Also, the AC50 with HTT mRNA and in the assay on MYB mRNA was below 0.1 µM each time.

In the case of `Cc1cc(-c2nc3ncn(C4CCN(C)CC4)c(=O)c3s2)cc2cn(C)nc12` [Compound 234, 2-(2,7-dimethyl-2H-indazol-5-yl)-6-(1-methylpiperidin-4-yl)thiazolo[4,5-d]pyrimidin-7(6H)-one], the pIC50 with HTT mRNA is 6.00 to 7.00; in the assay with MYB mRNA, 6.00 to 7.00; in assay [1], above 7.00. For the same molecule, the results for the half-maximal activity concentration (AC50) in the assay on HTT mRNA and in the assay with MYB mRNA were 0.1 to 1 µM and below 0.1 µM, respectively.

With `Cc1cn2cc(-c3cc4ncn(C5CCNCC5)c(=O)c4s3)cc(F)c2n1` [Compound 235, 6-(8-fluoro-2-methylimidazo[1,2-a]pyridin-6-yl)-3-(piperidin-4-yl)thieno[3,2-d]pyrimidin-4(3H)-one], the results for the pIC50 (in the assay with HTT mRNA; in the assay with MYB mRNA; in assay [1]) were above 7.00, 6.00 to 7.00 and 6.00 to 7.00, respectively. The AC50 is below 0.1 µM in the assay with HTT mRNA and 0.1 to 1 µM with MYB mRNA.

As to `Cc1cc(-c2cc3ncn(C4CCNCC4)c(=O)c3s2)cc2cn(C)nc12` [Compound 236, 6-(2,7-dimethyl-2H-indazol-5-yl)-3-(piperidin-4-yl)thieno[3,2-d]pyrimidin-4(3H)-one], the pIC50 is above 7.00 in the assay on HTT mRNA, 6.00 to 7.00 with MYB mRNA and above 7.00 in assay [1]. Moreover, the AC50 with HTT mRNA and in the assay on MYB mRNA was 0.1 to 1 µM each time.

With `Cc1cc(-c2cc3ncn(C4CCN(C)CC4)c(=O)c3s2)cc2cn(C)nc12` [Compound 237, 6-(2,7-dimethyl-2H-indazol-5-yl)-3-(1-methylpiperidin-4-yl)thieno[3,2-d]pyrimidin-4(3H)-one], the pIC50 with HTT mRNA was 6.00 to 7.00; in the assay on MYB mRNA, 6.00 to 7.00; in assay [1], above 7.00. The AC50 with HTT mRNA is 0.1 to 1 µM; in the assay on MYB mRNA, below 0.1 µM.

`Cc1cn2nc(-c3cc4ncn(C5CCNCC5)c(=O)c4s3)cc(C)c2n1` [Compound 238, 6-(2,8-dimethylimidazo[1,2-b]pyridazin-6-yl)-3-(piperidin-4-yl)thieno[3,2-d]pyrimidin-4(3H)-one]: the pIC50 (with HTT mRNA; with MYB mRNA; in assay [1]) was 6.00 to 7.00 in each case. Moreover, the AC50 in the assay with HTT mRNA and with MYB mRNA was 0.1 to 1 µM throughout.

`Cc1cn2nc(-c3cc4ncn(C5CCN(C)CC5)c(=O)c4s3)cc(C)c2n1` [Compound 239, 6-(2,8-dimethylimidazo[1,2-b]pyridazin-6-yl)-3-(1-methylpiperidin-4-yl)thieno[3,2-d]pyrimidin-4(3H)-one]: the pIC50 (in the assay on HTT mRNA; in the assay with MYB mRNA; in assay [1]) was 5.00 to 6.00 in each case. In addition, the AC50 was 1 to 10 µM in the assay with HTT mRNA and 0.1 to 1 µM with MYB mRNA.

As to `Cc1cn2cc(-c3nc4sc(C5CCNCC5)cc4c(=O)[nH]3)cc(F)c2n1` [Compound 250, 2-(8-fluoro-2-methylimidazo[1,2-a]pyridin-6-yl)-6-(piperidin-4-yl)thieno[2,3-d]pyrimidin-4(3H)-one], the pIC50 (with HTT mRNA; in the assay on MYB mRNA; in assay [1]) was 6.00 to 7.00 in each case. For the same molecule, the AC50 in the assay with HTT mRNA and with MYB mRNA was 0.1 to 1 µM each time.

For `Cc1nc(-c2nc3ncn(C4CCNCC4)c(=O)c3s2)cc2cn(C)nc12` [Compound 251, 2-(2,7-dimethyl-2H-pyrazolo[3,4-c]pyridin-5-yl)-6-(piperidin-4-yl)thiazolo[4,5-d]pyrimidin-7(6H)-one], the pIC50 (with HTT mRNA; in the assay with MYB mRNA; in assay [1]) was 5.00 to 6.00 in each case. For the same molecule, the AC50 in the assay on HTT mRNA was 1 to 10 µM; with MYB mRNA, above 10 µM.

Consider `Cn1cc2cc(-c3nc4ncn(C5CCNCC5)c(=O)c4s3)c(O)cc2n1` [Compound 253, 2-(6-hydroxy-2-methyl-2H-indazol-5-yl)-6-(piperidin-4-yl)thiazolo[4,5-d]pyrimidin-7(6H)-one, hydrochloride], for which the pIC50 (with HTT mRNA; in the assay with MYB mRNA; in assay [1]) was 5.00 to 6.00 in each case. Besides, the AC50 in the assay with HTT mRNA and in the assay on MYB mRNA was 1 to 10 µM in each case.

Regarding `Cc1cn2cc(-c3nc4sc(C5CCN(C)CC5)cc4c(=O)[nH]3)cc(F)c2n1` [Compound 256, 2-(8-fluoro-2-methylimidazo[1,2-a]pyridin-6-yl)-6-(1-methylpiperidin-4-yl)thieno[2,3-d]pyrimidin-4(3H)-one], the pIC50 (with HTT mRNA; in the assay on MYB mRNA; in assay [1]) was below 5.00 each time. The AC50 with HTT mRNA and in the assay on MYB mRNA was above 10 µM each time.

Consider `Cn1cc2cc(-c3cc4ncn(C5CCNCC5)c(=O)c4s3)cc(F)c2n1` [Compound 257], for which the pIC50 (in the assay with HTT mRNA; in the assay with MYB mRNA; in assay [1]) was 5.00 to 6.00 each time. In addition, the AC50 in the assay on HTT mRNA and with MYB mRNA was 1 to 10 µM in each case.

With `Cn1cc2cc(-c3cc4ncn(C5CCNCC5)c(=O)c4s3)c(F)cc2n1` [Compound 258], the pIC50 (with HTT mRNA; in the assay with MYB mRNA; in assay [1]) was 6.00 to 7.00 throughout. Further, the AC50 with HTT mRNA and with MYB mRNA was 0.1 to 1 µM each time.

As for `Cn1cc2cc(-c3cc4ncn(C5CCNCC5)c(=O)c4s3)cc(C#N)c2n1` [Compound 259], the pIC50 was 5.00 to 6.00 in the assay with HTT mRNA, 6.00 to 7.00 in the assay with MYB mRNA and 6.00 to 7.00 in assay [1]. The values for the AC50 in the assay with HTT mRNA and in the assay with MYB mRNA were 1 to 10 µM and 0.1 to 1 µM, respectively.
